Laboratory results published in publication PMC8449414, “Rational design of ASCT2 inhibitors using an integrated experimental-computational approach” (Proceedings of the National Academy of Sciences of the …, 2021).
“Also recorded” adds a separate entry of the source.

How the values were obtained:
Test in all cases: Electrophysiology: SLC1 specificity, anion current in transfected HEK293 cells
Assay type in all cases: cell-based
[1] = target: T1, hASCT1 (Homo sapiens, UniProt P43007); settings: for Ki: read-out: Binding affinity Ki
T1 construct: expressed in transfected cells; host or cells: HEK293 (ATCC CRL-11268), transient transfection
T1 sequence (P43007 1-532): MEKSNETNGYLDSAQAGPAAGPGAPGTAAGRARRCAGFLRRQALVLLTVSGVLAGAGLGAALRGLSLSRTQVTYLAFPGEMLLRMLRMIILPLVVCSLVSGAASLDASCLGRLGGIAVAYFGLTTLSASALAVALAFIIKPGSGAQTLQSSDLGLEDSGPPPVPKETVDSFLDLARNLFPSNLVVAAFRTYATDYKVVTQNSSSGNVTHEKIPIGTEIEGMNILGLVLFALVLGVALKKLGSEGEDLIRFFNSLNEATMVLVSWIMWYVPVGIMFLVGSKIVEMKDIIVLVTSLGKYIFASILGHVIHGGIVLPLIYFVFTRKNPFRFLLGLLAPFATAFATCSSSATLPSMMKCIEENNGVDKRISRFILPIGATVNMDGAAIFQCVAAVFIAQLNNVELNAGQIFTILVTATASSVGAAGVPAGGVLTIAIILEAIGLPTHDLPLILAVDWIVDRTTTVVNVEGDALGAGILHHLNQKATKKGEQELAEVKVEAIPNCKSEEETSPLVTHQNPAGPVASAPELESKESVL
Method: (§1) We also tested the specificity of Lc-BPE for ASCT2 over other SLC1 family members (ASCT1, EAAT1-3, and EAAT5).
(§2) Fig. S3. SLC-1 specificity of Lc-BPE. (A) Electrophysiological current responses to the application of 100 µM glutamate (red trace) or varying concentrations of Lc-BPE (black, blue and red traces) to rEAAT1-expressing cells HEK293 cells. (B-C) Dose response curves obtained from currents recorded a fter application of Lc-BPE extracellularly to cells transiently expressing hASCT2, rASCT2, hASCT1 (panel B) and rEAAT1, rEAAT2, rEAAT3 and hEAAT5 (panel C) respectively. For hASCT2, rASCT2 and hASCT1, intracellular pipette solution contained 10 mM alanine and 130 mM NaSCN. For rEAAT1, rEAAT2, rEAAT3 and hEAAT5, intracellular solution contained 10 mM glutamate and 130 mM NaSCN. Extracellular solution was the same for all the experiments (140 mM NaCl). The voltage was 0 mV. […]
(§3) Cell culture and transfection
(§4) Human embryonic kidney 293 (HEK293, ATCC CRL -11268) cells were cultured in DMEM media supplemented with 10% (v/v) fetal bovine serum (FBS), 2 mM glutamine, 1% penicillin streptomycin solution, 1 mM sodium pyruvate and non -essential amino acids. Cells were maintained at 370C in a fully humidified atmosphere containing 5% CO2. rASCT2, hASCT2, hASCT1, EAAT1, EAAT2, EAAT3, EAAT5 and YFP complementary DNAs were each used to transiently transfect HEK293 using POLYPLUS Jet-prime transfection reagent. Cells were analyzed using electrophysiological techniques 24-40 hours after transfection.
(§5) Electrophysiological techniques
(§6) Electrophysiological experiments were performed as described previously 1,2. Stock solutions of inhibitor was prepared in dimethyl sulfoxide (DMSO) up to 100 mM.
(§7) Dilutions to working concentrations were made using external buffer. The highest […]
(§8) cells. For rASCT2, hASCT2 and hASCT1, external buffer contained 140 mM NaCl, 2 mM MgCl2, 2 mM CaCl2, and 10 mM HEPES, pH 7.40 while internal pipette solution comprised of 130 mM NaSCN, 2 mM MgCl2, 10 mM EGTA, 10 mM HEPES and 10mM alanine, pH 7.40. For specificity experiments with EAAT1, EAAT2, EAAC1 and EAAT5, internal solution contained 10 mM glutamate instead of alanine. Compounds were applied to HEK293 cells expressing DNA of interest suspended from a current recording electrode in whole cell configuration44 through a rapid solution exchange device described previously45. Cells are immersed in external buffer bath used to dissolve the inhibitors. The open pipette resistance was between 3 and 6 MΩ. Series resistance was not compensated in these experiments due to relatively small currents. Current s traces were recorded using an Adams and List EPC7 amplifier and digitized using a Molecular Devices Digidata A/D converter.
(§9) Data analysis was performed as described previously 46. Linear and nonlinear curve fitting of the experimental data were analyzed using MicroCal Origin software. Linear plots were fitted using the general equation (y = a + bx) obtaining adjusted R 2 and Pearson’s r values. Nonlinear dose–response relationships were fitted with a Michaelis – Menten-like equation to obtain apparent Ki values in the absence of substrate. For competition studies, equation I = I1 + I2 [Inh]/(Ki + [Inh]) was used for fitting, where I1 is the alanine induced current without the inhibitor, and I2 is the maximum current in the presence of saturating inhibitor concentration, [Inh]max 1,2. At least five experiments were performed for each compound. Unless stated otherwise, the error bars in all our graphs represent mean ± SD .
(§10) ASCT2 expression and purification
(§11) Human ASCT2 (hASCT2) was produced in Pichia pastoris X-33 strain (Invitrogen) in fermentor26 and purified using DDM and CHS (Anatrace) and 1 mM L-glutamine (Merck) to maintain protein stability 27. Membranes representing ~1.5 g cells were solubilized in buffer A (25 mM Tris-HCl, pH 7.4, 300 mM NaCl, 10% (vol/vol) glycerol, 1 mM L - glutamine, 1% DDM and 0.1% CHS) for 1 h at 4 °C; ultracentrifuged (30 min, 442,907 × […]

[2] = target: T2, hEAAT5 (Homo sapiens, UniProt O00341); settings: for Binding affinity Ki / Ki: HEK293 cells, 0 mV, 10 mM glutamate and 130 mM NaSCN internal, No current = no outward current up to highest concentration tested (§ 20-50, || 100-400, # 1500-2500 µM); for Ki: read-out: Binding affinity Ki
T2 construct: expressed in transfected cells; host or cells: HEK293 (ATCC CRL-11268), transient transfection
Method: as §1, §2, §3, §4, §5, §6, §7, §8, §9, §10, §11

[3] = target: T3, rEAAT2 (Rattus norvegicus, UniProt P31596); settings: 0 mV, 10 mM glutamate and 130 mM NaSCN internal, No current = no outward current up to highest concentration tested (§ 20-50, || 100-400, # 1500-2500 µM); for Ki: read-out: Binding affinity Ki
T3 construct: expressed in transfected cells; host or cells: HEK293 (ATCC CRL-11268), transient transfection
Method: as §1, §2, §3, §4, §5, §6, §7, §8, §9, §10, §11

[4] = HEK293 cells, 0 mV, 10 mM alanine and 130 mM NaSCN internal, No current = no outward current up to highest concentration tested (§ 20-50, || 100-400, # 1500-2500 µM)

T2 sequence (O00341 whole entry): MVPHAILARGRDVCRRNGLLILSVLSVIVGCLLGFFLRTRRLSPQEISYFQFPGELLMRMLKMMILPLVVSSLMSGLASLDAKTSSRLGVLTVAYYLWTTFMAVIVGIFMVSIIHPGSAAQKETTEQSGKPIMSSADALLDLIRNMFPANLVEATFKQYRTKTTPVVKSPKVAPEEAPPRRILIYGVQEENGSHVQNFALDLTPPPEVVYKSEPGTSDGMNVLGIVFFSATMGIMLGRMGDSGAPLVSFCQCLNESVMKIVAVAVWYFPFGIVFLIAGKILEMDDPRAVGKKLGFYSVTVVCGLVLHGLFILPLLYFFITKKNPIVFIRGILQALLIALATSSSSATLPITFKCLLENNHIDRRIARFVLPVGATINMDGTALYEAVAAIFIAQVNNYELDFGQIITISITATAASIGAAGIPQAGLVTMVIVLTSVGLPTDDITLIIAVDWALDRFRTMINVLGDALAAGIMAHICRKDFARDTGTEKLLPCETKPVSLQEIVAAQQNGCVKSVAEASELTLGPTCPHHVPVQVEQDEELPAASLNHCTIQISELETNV
T3 sequence (P31596 whole entry): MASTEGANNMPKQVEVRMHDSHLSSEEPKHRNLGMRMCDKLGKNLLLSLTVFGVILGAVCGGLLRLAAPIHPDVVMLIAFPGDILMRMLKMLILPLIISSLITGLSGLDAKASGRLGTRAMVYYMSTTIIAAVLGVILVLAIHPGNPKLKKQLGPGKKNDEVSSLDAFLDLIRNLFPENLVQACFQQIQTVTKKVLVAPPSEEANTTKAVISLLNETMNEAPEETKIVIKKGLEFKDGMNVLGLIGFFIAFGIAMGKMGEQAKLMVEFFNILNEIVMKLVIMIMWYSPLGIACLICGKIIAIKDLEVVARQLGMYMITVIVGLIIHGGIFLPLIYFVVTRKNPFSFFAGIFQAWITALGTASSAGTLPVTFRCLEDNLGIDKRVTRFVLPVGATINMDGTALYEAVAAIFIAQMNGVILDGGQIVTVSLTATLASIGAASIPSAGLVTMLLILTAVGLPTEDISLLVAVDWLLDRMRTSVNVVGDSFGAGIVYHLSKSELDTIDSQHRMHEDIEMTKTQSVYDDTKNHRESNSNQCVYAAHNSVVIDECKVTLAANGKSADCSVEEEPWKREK

Compound | Binding affinity Ki [1, 4] | Binding affinity Ki [2] | Binding affinity Ki [3] | Ki [1, 4] [µM] | Ki [2] [µM] | Ki [3] [µM] | apparent affinity of hASCT1 lower than that of rASCT2 ([1]; hASCT1 versus rASCT2) [fold] | Ki for hEAAT5 higher than for rASCT2 ([2]; hEAAT5 versus rASCT2) [fold]
O=C(O[C@@H]1CN[C@H](C(=O)O)C1)c1ccccc1-c1ccccc1 [ERA-3] | No current | No current | No current | – | – | – | – | –
O=C(O[C@@H]1CN[C@H](C(=O)O)C1)c1ccc(-c2ccc(F)cc2)cc1 [ERA-4] | – | – | – | 0.9 ± 0.08 | 2.4 ± 0.72 | 1.29 ± 0.31 | – | –
O=C(O[C@@H]1CN[C@H](C(=O)O)C1)c1ccc(-c2ccc(C(F)(F)F)cc2)cc1 [ERA-5] | – | – | – | 0.44 ± 0.14 | 1.05 ± 0.15 | 0.97 ± 0.1 | – | –
Cc1ccccc1-c1ccc(C(=O)O[C@@H]2CN[C@H](C(=O)O)C2)cc1 [ERA-6] | – | – | – | 1.33 ± 0.3 | 2.5 ± 0.93 | 1.3 ± 0.13 | – | –
O=C(O[C@@H]1CN[C@H](C(=O)O)C1)c1ccc(C(O)c2ccccc2)cc1 (stereo partly shown) [ERA-9] | – | No current; also recorded: No inhibitory activity was detected | No current; also recorded: No inhibitory activity was detected | 43 ± 13.4 | – | – | – | –
O=C(Nc1ccc(C(=O)O[C@@H]2CN[C@H](C(=O)O)C2)cc1)c1ccc(C(F)(F)F)cc1 [ERA-11] | – | No current | No current | 8.51 ± 3.87 | – | – | – | –
O=C(O[C@@H]1CN[C@H](C(=O)O)C1)c1ccc(Oc2ccccc2)cc1 [ERA-16] | – | – | – | 5.71 ± 0.91 | 6.17 ± 1.47 | 7.72 ± 1.89 | – | –
N[C@@H](COC(=O)c1ccc(NC(=O)c2ccccc2)cc1)C(=O)O [ERA-21] | – | – | – | 11.6 ± 1.75 | 21.3 ± 3.15 | 11 ± 1.25 | – | –
N[C@@H](COC(=O)c1ccccc1)C(=O)O [ERA-25] | – | No current | – | 170 ± 26.7 | – | 164 ± 47 | – | –
N[C@@H](COC(=O)c1cccnc1)C(=O)O [ERA-28] | – | No current | No current | 549 ± 306 | – | – | – | –
O=C(O[C@@H]1CN[C@H](C(=O)O)C1)C(c1ccccc1)c1ccccc1 [ERA-29] | – | No current | No current | – | – | – | – | –
O=C(O[C@@H]1CN[C@H](C(=O)O)C1)c1ccc(OCc2ccccc2)cc1 [ERA-31] | – | No current | No current | > 100 | – | – | – | –
O=C(O[C@H]1CN[C@H](C(=O)O)C1)c1ccc(C(=O)c2ccccc2)cc1 [ERA-35] | – | No current | No current | – | – | – | – | –
O=C(O[C@@H]1CN[C@H](C(=O)O)C1)c1ccc(-c2ccccc2)cc1 [Lc-BPE, L-cis hydroxyproline biphenyl ester] | – | – | – | – | 2.22 ± 0.46 | – | ~3.8 | ~3
